Laboratory results: patent US20030125314A1, “Photodynamic therapy for the treatment of epilepsy” (priority 2001, published 2003)

How the values were obtained:
[1] = tested on: rat model of epilepsy (kindled rats); assay: Morris Water Maze (spatial learning and memory) after photodynamic therapy; type: in vivo, Sprague-Dawley rats; details: ALA 400 mg/Kg IV, 635 nm laser 10 min at 4 h, vs control animals, F(3,27)=0.920, p=0.445 between groups
From the text: To assess behavioral outcome, thirty-one Sprague-Dawley rats were placed into four groups to test the effects of PDT treatment parameters. All animals underwent a behavioral battery that included the Morris Water Maze (MWM), selected to assess one aspect of hippocampal function, spatial learning and memory and incline plane (IP) to screen for motor injury. […] Male Sprague-Dawley rats (275 g) had bipolar stimulating electrodes stereotactically implanted under surgical anesthesia at 7.4 mm posterior to Bregma and 4.1 lateral to the midline through a 1.5 mm craniotomy. […] ALA (400 mg/Kg) was injected intravenously through a femoral vein catheter. […] Four hours post drug administration animals were anesthetized and stereotactically positioned. […] A 4 mm diameter was created and a laser was positioned 2.3 mm from the surface of the brain. […] Laser light was focused on the brain for 10 minutes at a wavelength of 635 nanometers. […] All animals participated in the MWM test which was conducted over 5 consecutive days.

[2] = tested on: kindled rats; assay: Beam walk test to assess paresis after photodynamic therapy; type: in vivo, rat; details: animals completing the photodynamic therapy protocol, compared to historic controls
From the text: (§1) In our study, animals completing the photodynamic therapy protocol recovered from surgery and underwent behavioral testing using the beam walk test to assess paresis and the Morris Water Maze to assess hippocampus related learning.

[3] = cited from earlier work
[4] = tested on: rat model of epilepsy (kindled rats); assay: Incline Plane test (motor/grip strength) after photodynamic therapy; type: in vivo, Sprague-Dawley rats; details: ALA 400 mg/Kg IV, 635 nm laser 10 min, vs control groups, F(3,27)=1.616, p=0.209 between groups
Method: To assess behavioral outcome, thirty-one Sprague-Dawley rats were placed into four groups to test the effects of PDT treatment parameters. All animals underwent a behavioral battery that included the Morris Water Maze (MWM), selected to assess one aspect of hippocampal function, spatial learning and memory and incline plane (IP) to screen for motor injury. […] ALA (400 mg/Kg) was injected intravenously through a femoral vein catheter. […] Four hours post drug administration animals were anesthetized and stereotactically positioned. […] A 4 mm diameter was created and a laser was positioned 2.3 mm from the surface of the brain. […] Laser light was focused on the brain for 10 minutes at a wavelength of 635 nanometers. […] This test was selected because it can evaluate bilateral grip strength and we used this test to screen for any motor and/or coordination deficiencies resulting for the surgical craniectomy or laser effect on the cortex. […] Any sign of hemiparesis may indicate undesired cortical injury. […] This test involves the initial placement of the animal at a 65 degree angle to the horizontal. The flat plane can move up or down at intervals of 5 degrees, until they are at an angle where they can hold their position without sliding down. Then the opposite side is tested. Animals are evaluated on this task on days 1-4 before going on to the MWM.

[5] = tested on: CA1 and CA3 regions of the kindled hippocampus; assay: Fluorojade histofluorescence analysis of cell death after laser-induced PDT; type: in vivo, rat; details: 24 hours after laser-induced PDT of ALA-treated animals
Method: The Wilson laboratory at the University of Toronto has previously measured apoptotic cell death at 24 hours following PDT and our Fluorojade results are consistent with their findings. Lilge et al. (2000) have shown that necrotic and apoptotic cell death are a function of the laser exposure (a variable easy to control) and not extent of ALA uptake or conversion.
Fluorojade (Histo-Chem, Inc) staining will be carried out on 20 micron cryostat-prepared brain sections. Tissue sections are mounted onto gelatinized slides and allowed to dry at room temp. Using a staining rack, slides are immersed in 100% EtOH (3 min), in 70% EtOH (1 min), in distilled water (1 min), and then in 0.06% solution of potassium permanganate (15 min, shaking gently). Slides are rinsed in distilled water, and then immersed in a 0.001% Fluoro-Jade solution (away from light, 30 min, shaking gently) following steps carried out in dim light). Still in dim light, slides are then rinsed, dried, dehydrated (xylene), and coverslipped. Stained slides, viewed with a fluorescence microscope (FITC filter), reveal apoptotic cells as brightly green.

[6] = tested on: kindled rats; assay: Resumed daily kindling stimulations after PDT (seizure activity, after discharges); type: in vivo, rat; details: PDT animals, over 1 week of daily stimulation
From the text: We have assessed this therapy in kindled rats. Kindling is a well characterized and reproducible model for reflecting epileptogensis, the process by which a normal brain region becomes an epileptic focus. Animals are kindled with an electrode implanted into the perforant path region of the brain. Each day the animals receive a small stimulus. Initially no seizure activity is induced, but over two or three weeks, this same low level of stimulation generates increasing seizure activity until an animal has 3 consecutive tonic clonic (Stage 5) seizures. Once fully kindled, animals retain this seizure sensitivity even if not stimulated for days or months.
as §1

[7] = tested on: kindled rats; assay: Morris Water Maze after photodynamic therapy, compared to historic controls; type: in vivo, rat; details: animals completing the photodynamic therapy protocol
From the text: as §1

[8] = tested on: hippocampal cells; assay: PpIX fluorescence in brain sections after ALA infusion (fluorescence microscopy, Texas Red filter); details: 400 mg/Kg IV, 4 hours

NCC(=O)CCC(=O)O [ALA, 5-aminolevulinic acid]
performance on the MWM task [1]: no significant differences
hemiparesis (beam walk test) [2]: no hemiparesis
blood-brain barrier passage ([3]; evidenced by increased PpIX concentrations in normal brain tissue after ALA administration (Hebeda, K., 1995)): can cross the blood-brain barrier
time point of maximal uptake of ALA into brain tissue ([3]; following the ALA injection (Lilge, L., et al. 2000)): four
incline plane assessment (motor performance) [4]: no difference between groups
cell death (Fluorojade histofluorescence) [5]: selective cell death in the CA1 and CA3 regions of the kindled hippocampus
seizure activity / after discharges on resumed kindling stimulation [6]: no seizure activity or significant after discharges
learning impairment (Morris Water Maze) [7]: no hemiparesis or learning impairment
ALA uptake in hippocampal cells (PpIX fluorescence) ([8]; fully kindled rats with elicited seizures vs fully kindled rats without elicited seizures and implanted controls, preliminary data): greater ALA uptake in hippocampal cells
PpIX fluorescence ([8]; kindled rats without elicited seizures vs implanted controls, initial results): more fluorescence than implanted controls
